{"source": "patent US9765101B2", "about": "“Organo-arsenoxide compounds and use thereof” (NewSouth Innovations Pty Limited, priority 2006, dated 2017)", "key": {"[1]": {"tested_on": "HT1080 cells (fibrosarcoma)", "assay": "HT1080 cell proliferation assay (MTT, 72 h)", "assay_type": "cell-based", "settings": "HT1080, human fibrosarcoma; read-out: IC50 for proliferation arrest", "protocol": "(§1) BAE cells were from Cell Applications, San Diego, Calif. and BxPC-3, HT1080, LLC, PANC-1, MCF-7, HCT116 and K562 cells were from ATCC, Bethesda, Md. NB4 and MDCK2 cells were from Shane Supple (Kanematsu Laboratories, Royal Prince Alfred Hospital, Sydney, Australia) and P. Borst (The Netherlands Cancer Institute, Amsterdam, The Netherlands). BAE, HT1080, Panc-1, MCF-7, HCT116, MDCK2 and LLC cells were cultured in DMEM. NB4, K562 and BxPC-3 cells were cultured in RPMI medium. The cells were supplemented with 10% foetal calf serum (FBS), 2 mM L-glutamine, and 1 U·mL-1 penicillin/streptomycin. Cell culture plasticware was from Techno Plastic Products (Trasadingen, Switzerland). All other cell culture reagents were from Gibco (Gaithersburg, Md.).\n(§2) Adherent cells were allowed to adhere overnight."}, "[2]": {"tested_on": "LLC cells (lung carcinoma)", "assay": "LLC cell proliferation assay (MTT, 72 h)", "assay_type": "cell-based, human", "settings": "mouse Lewis lung carcinoma, read-out: IC50 for proliferation arrest", "protocol": "as §1, §2"}, "[3]": {"tested_on": "HCT1116 cells (colorectal carcinoma)", "assay": "HCT116 cell proliferation assay (MTT, 72 h)", "assay_type": "cell-based", "settings": "HCT1116, human colorectal carcinoma; read-out: IC50 for proliferation arrest", "protocol": "as §1, §2"}, "[4]": {"tested_on": "organic anion transporting polypeptide (OATP)", "assay": "OATP studies with inhibitor DIDS in BAE cells", "assay_type": "cell-based, bovine", "protocol": "750,000 BAE cells were seeded in 6 well plates containing DMEM with 10% fetal calf serum and allowed to adhere overnight. Cells were pretreated or not with 500 μM 4,4′-diisothiocyanostilbene-2,2′-disulfonic acid (DIDS) for 30 min and then incubated with 20 μM (S)-Penicillamine arsenoxide for 2 h at 37° C. and 5% CO2. Cells were then washed twice with ice-cold PBS and lysed with 70% nitric acid. Cellular arsenic levels were determined by ICPMS. 5000 BAE cells were seeded in 96 well plates containing DMEM with 10% fetal calf serum and allowed to adhere overnight. Cells were pretreated or not with 300 μM DIDS for […] and then incubated with 1.5 μM (S)-Penicillamine arsenoxide for 24 h at 37° C. and 5% CO2. Cell viability was determined using MTT."}, "[5]": {"tested_on": "human BxPC-3 pancreatic carcinoma tumours", "assay": "Primary tumor growth assay, BxPC-3 tumours in BalbC nude mice", "assay_type": "in vivo, mouse", "settings": "for tumour doubling time: subcutaneous micro-osmotic pump, 28 day", "protocol": "Female 7 to 9 week old Balb C nude mice were used (UNSW Biological Resource Centre). Mice were held in groups of 3 to 5 at a 12 h day and night cycle and were given animal chow and water ad libidum. A suspension of 2×10^6 BxPC-3 cells in 0.2 mL of PBS was injected subcutaneously in the proximal midline. Tumors were allowed to establish and grow to a size of ˜50 mm^3 after which they were randomized into four groups. Tumor volume was calculated using the relationship length×height×width×0.523. Tumor doubling time (TD) was calculated from the tumor growth rate curve during exponential growth using the formula […], where VF is final tumor volume and VI is initial tumor volume (Wolff et al., 2004). Animals were implanted with 28 day alzet model 1004 micro-osmotic pumps (ALZA Corporation, Palo Alto, Calif.) subcutaneously in the flank. The pumps delivery 0.25, 0.5 or 1 mg/kg/day (S)-Penicillamine arsenoxide in 100 mM glycine. Tumor volume and animal weight was measured every 2 or 3 days.\nBalbC nude mice bearing subcutaneous human BxPC-3 pancreatic carcinoma tumours in the proximal midline were implanted with 28 day micro-osmotic alzet pumps subcutaneously in the flank. The pumps delivered 0.25, 0.5 or 1 mg per kg per day (S)-Penicillamine arsenoxide. […] The tumour doubling times are 9.2, 8.3, 13.9 and 16.2 days for groups treated with vehicle (100 mM glycine) or 0.25, 0.5 and 1 mg/kg/day (S)-Penicillamine arsenoxide, respectively."}}}
{"smiles": "CC(C)(SCC(=O)Nc1ccc([As](O)O)cc1)[C@@H](N)C(=O)O", "note": "[(S)-Penicillamine-arsenoxide, 4-(N—(S-penicillaminylacetyl)amino)phenylarsinous acid]", "values": [{"measurement": "IC50", "setting": "[1]", "result": 4, "unit": "µM"}, {"measurement": "IC50", "setting": "[2]", "result": 5, "unit": "µM"}, {"measurement": "IC50", "setting": "[3]", "result": 6, "unit": "µM"}, {"measurement": "effect of DIDS on anti-proliferative activity", "setting": "[4]; 300 μM DIDS, then 1.5 μM compound 24 h", "result": "reduces its anti-proliferative activity"}, {"measurement": "effect of DIDS on uptake", "setting": "[4]; 500 μM DIDS 30 min, then 20 μM compound 2 h", "result": "inhibits (S)-Penicillamine arsenoxide uptake"}, {"measurement": "tumour doubling time", "setting": "[5]; 0.25 mg/kg/day", "result": 8.3, "unit": "days"}, {"measurement": "tumour doubling time", "setting": "[5]; 0.5 mg/kg/day", "result": 13.9, "unit": "days"}, {"measurement": "tumour doubling time", "setting": "[5]; 1 mg/kg/day", "result": 16.2, "unit": "days"}, {"measurement": "growth of the BxPC-3 tumours", "setting": "[5]; 0.25, 0.5 or 1 mg per kg per day", "result": "significantly inhibited"}, {"measurement": "accumulation of connective tissue, mice affected", "setting": "[5]; highest dose animals", "result": 1, "unit": "mouse"}, {"measurement": "skin necrosis at the delivery site, mice affected", "setting": "[5]; highest dose animals", "result": "3 of the 10"}, {"measurement": "skin toxicity at pump delivery site", "setting": "[5]; highest dose animals (1 mg/kg/day)", "result": "some skin toxicity at the pump delivery site"}, {"measurement": "findings at delivery site at the lower doses", "setting": "[5]; lower doses", "result": "some evidence of accumulation of connective tissue at the delivery site in the occasional mouse"}, {"measurement": "animal weight versus vehicle", "setting": "[5]; not shown", "result": "no change in the weight"}]}
